The values below are quoted from earlier work in patent US20220409609A1, “INJECTABLE FORMULATION OF HYDROXYCHLOROQUINE” (Luckwel Pharmaceuticals Inc., priority 2021, published 2022).

Molecules are shown by their SMILES. Counter-ions that a name gives are not always drawn.

The conditions of data set [1]: water at 25° C.

With `CCN(CCO)CCCC(C)Nc1ccnc2cc(Cl)ccc12` (racemic) [Hydroxychloroquine sulfate, 2-[[4-[(7-Chloro-4-quinolyl)amino]pentyl]ethylamino] ethanol sulfate (1:1)], the “time at which hydroxychloroquine concentrations peak after dosing” value was 3 to 4 h. Besides, the solubility in water result in data set [1] was “freely soluble”.
